Data as given in ChEMBL document CHEMBL1158690, “Characterization of lipophilic pentasaccharides from beach morning glory (Ipomoea pes-caprae)” (2005).

How the values were obtained:
Type in all cases: functional
[1] = Cytotoxicity against human nasopharyngeal carcinoma cells; settings: Nasopharyngeal carcinoma cell, read-out: ED50 (the source's name)
[2] = Cytotoxicity against human colon carcinoma cells; settings: Colon carcinoma cell, read-out: ED50 (the source's name)
[3] = Cytotoxicity against human squamous cervical carcinoma cells; settings: read-out: ED50 (the source's name)
[4] = Cytotoxicity against human ovarian carcinoma cells; settings: Ovarian carcinoma cell, read-out: ED50 (the source's name)

Measured: EC50

CCCCCCCCCCCC(=O)O[C@H]1[C@H](O[C@@H]2[C@H]3OC(=O)CCCCCCCCC[C@H](CCCCC)O[C@@H]4O[C@H](C)[C@H](O)[C@H](O)[C@H]4O[C@H](O[C@H]2C)[C@@H]3O)O[C@@H](C)[C@H](O[C@@H]2O[C@@H](C)[C@H](OC(=O)[C@@H](C)CC)[C@@H](O)[C@H]2O)[C@H]1O[C@@H]1O[C@@H](C)[C@H](O)[C@@H](O)[C@H]1O [PESCAPREIN III]
5 µg/mL: all assays above

CCCCCCCCCCCC(=O)O[C@H]1[C@H](O[C@@H]2[C@H]3OC(=O)CCCCCCCCC[C@H](CCCCC)O[C@@H]4O[C@H](C)[C@H](O)[C@H](O)[C@H]4O[C@H](O[C@H]2C)[C@@H]3O)O[C@@H](C)[C@H](O[C@@H]2O[C@@H](C)[C@H](OC(=O)C(C)C)[C@@H](O)[C@H]2O)[C@H]1O[C@@H]1O[C@@H](C)[C@H](O)[C@@H](O)[C@H]1O [PESCAPREIN II]
5 µg/mL: all assays above

CCCCCCCCCCCC(=O)O[C@H]1[C@H](O[C@@H]2[C@H]3OC(=O)CCCCCCCCC[C@H](CCCCC)O[C@@H]4O[C@H](C)[C@H](O)[C@H](O)[C@H]4O[C@H](O[C@H]2C)[C@@H]3O)O[C@@H](C)[C@H](O[C@@H]2O[C@@H](C)[C@H](OC(=O)CCCCC)[C@@H](O)[C@H]2O)[C@H]1O[C@@H]1O[C@@H](C)[C@H](O)[C@@H](O)[C@H]1O [PESCAPREIN IV]
5 µg/mL: all assays above

CCCCCCCCCCCC(=O)O[C@H]1[C@H](O[C@@H]2[C@H]3OC(=O)CCCCCCCCC[C@H](CCCCC)O[C@@H]4O[C@H](C)[C@H](O)[C@H](O)[C@H]4O[C@H](O[C@H]2C)[C@@H]3O)O[C@@H](C)[C@H](O[C@@H]2O[C@@H](C)[C@H](O)[C@@H](O)[C@H]2O)[C@H]1O[C@@H]1O[C@@H](C)[C@H](O)[C@@H](O)[C@H]1O [PESCAPREIN I]
5 µg/mL: all assays above

CCCCCCCCCCCC(=O)O[C@H]1[C@H](O[C@@H]2[C@@H](O)[C@@H](O)[C@H](O[C@H]3[C@H](O[C@@H](CCCCC)CCCCCCCCCC(=O)OC)O[C@H](C)[C@H](O)[C@@H]3O)O[C@H]2C)O[C@@H](C)[C@H](O[C@@H]2O[C@@H](C)[C@H](O)[C@@H](O)[C@H]2O)[C@H]1O[C@@H]1O[C@@H](C)[C@H](O)[C@@H](O)[C@H]1O [PESCAPROSIDE A]
5 µg/mL: all assays above

CCCCCCCCCC(=O)O[C@H]1[C@H](O[C@@H]2[C@H]3OC(=O)CCCCCCCCC[C@H](CCCCC)O[C@@H]4O[C@H](C)[C@H](O)[C@H](O)[C@H]4O[C@H](O[C@H]2C)[C@@H]3O)O[C@@H](C)[C@H](O[C@@H]2O[C@@H](C)[C@H](OC(=O)[C@@H](C)CC)[C@@H](O)[C@H]2O)[C@H]1O[C@@H]1O[C@@H](C)[C@H](O)[C@@H](O)[C@H]1O [STOLONIFERIN III]
5 µg/mL: all assays above
